Test results published in US11684068B2, “Herbicidal compositions and methods of use thereof” (Valent U.S.A. LLC, priority 2018, dated 2023).

Tests used:
[1] = Wet sieve test and crystal examination after accelerated aging (long-term storage stability); assay type: physicochemical
Description: Variations of Composition 1 from Table 1, above, were subjected to extreme temperatures to determine long-term storage stability including the likelihood of large crystals growing that cause clogging of the spray nozzle by performing the wet sieve test. Specifically, these compositions containing various amounts of polyvinyl alcohol and ammonium sulfate were subjected to 2 weeks at 54° C. and 4 weeks at 50° C. accelerated aging. The wet sieve test typically was performed soon after the samples were brought back to room temperature using the following protocol:
A bottle containing the composition was emptied onto a 100-mesh sieve positioned on top of a receiver. Water was added to the bottle, shaken to rinse, and the rinse solution was poured onto the mesh to wash off the material. The rinsing step was repeated until visible quantity of residue on the mesh remained constant. If necessary, additional, minimum streams of water were introduced by way of a squirt or spray bottle to further clear the mesh. Typically, about 250 milliliters of water was used for about 40 grams of sample. The mesh was then dried to a constant weight and observed under a microscope.
(§1) Variations of Composition 2 from Table 1, above, were subjected to several conditions to determine long-term storage stability including % wet sieve test residue. Specifically, these compositions contained 0% or 2.8% w/w of polyvinyl alcohol and 0% or 2.8% w/w ammonium sulfate or 0% or 2.8% or 5.6% w/w potassium citrate and were subjected to 2 weeks at 54° C. and 4 weeks at 50° C.
Variations of Composition 3 from Table 1 above were subjected to several conditions to determine long-term storage stability including % wet sieve test residue. Specifically, these compositions contained 0 or 2.8% w/w of polyvinyl alcohol and 0% or 2.8% w/w ammonium sulfate and were subjected to 2 weeks at 54° C.
as §1, with “Composition 4” for “Composition 2”, “sulfate” for “sulfate or 0% or 2.8% or 5.6% w/w potassium citrate”, “C.” for “C. and 4 weeks at 50° C.”
Compositions 5-7 from Table 1, above, were subjected to several conditions to determine long-term storage stability including % wet sieve test residue. Specifically, these compositions contained 1.4% or 1.5% w/w of polyvinyl alcohol and 2.0% or 2.8% w/w ammonium sulfate and were subjected to 2 weeks at 54° C. and 4 weeks at 50° C.

[2] = Metribuzin solubility in salt solutions; assay type: physicochemical; settings: saturated in ammonium sulfate, ammonium acetate and potassium citrate tribasic monohydrate solutions; FIG. 1
Description: Metribuzin is partially soluble in water. Because of its partial solubility metribuzin grows crystals in aqueous solutions. It is a discovery of the present invention that, if water solubility of metribuzin is lowered, then crystal growth is inhibited or reduced. To determine if salts could lower the water solubility of metribuzin, metribuzin was added to the saturation point to several concentrations of ammonium sulfate, ammonium acetate and potassium citrate tribasic monohydrate solutions. Results can be seen in FIG. 1.

[3] = variations of Composition 2, 54° C. 2 weeks and 50° C. 4 weeks

SMILES | effect of additive on crystal growth and sieve residue [1, 3] | effect of additive on crystal growth and sieve residue ([1]; variations of Composition 3, 54° C. 2 weeks) | effect of additive on crystal growth and sieve residue ([1]; variations of Composition 4, 54° C. 2 weeks) | water solubility of metribuzin versus salt concentration [2]
N.N.O=S(=O)(O)O [Ammonium sulfate] | reduced crystal growth to small crystals | reduced the amount of crystals isolated on the sieve substantially | inhibited crystal growth and lowered sieve residue | 
O=C([O-])CC(O)(CC(=O)[O-])C(=O)[O-].[K+].[K+].[K+] [Potassium citrate] | completely inhibited crystal growth |  |  | 
CSc1nnc(C(C)(C)C)c(=O)n1N [metribuzin] |  |  |  | negatively correlated
